{"source": "patent US5306482A", "about": "“Radiopharmaceutical bacteriostats” (priority 1992, dated 1994)", "key": {"[1]": {"test": "Radiolabelling test of benzalkonium chloride (BAC) with sodium pertechnetate 99mTc in the presence of PABA (ITLC-SG radiochromatography, physical appearance)", "format": "physicochemical", "conditions": "for effect on PABA / its anti-oxidant properties / physical appearance (precipitate): MDP/PABA kit", "method": "A preliminary radiolabelling test of benzalkonium chloride (BAC) with sodium pertechnetate ^99m Tc in the presence of para-aminobenzoic acid (PABA) was conducted.\n(§1) Three vials with a total volume of 10 ml from a recently manufactured methylene diphosphonic acid (MDP) kit containing PABA were treated with various amounts of benzalkonium chloride, i.e., 1, 5 and 10 mg which corresponded to 0.01, 0.05 and 0.10% solutions. Radiochromatography was performed using ITLC-SG strips developed in acetone and saline. The vials were tested at 5 and 24 hours post reconstitution. At these two periods, less than 1% free pertechnetate and reduced hydrolyzed technetium was found in the three vials."}, "[2]": {"test": "MDP/PABA/BAC formulation - radiochemical stress test", "format": "physicochemical", "method": "Four batches of MDP/PABA/BAC kits were prepared, lyophilized, and tested. The formulations were as follows: […]\nOne vial from each batch was reconstituted with 500 mCi ^99m Tc-sodium pertechnetate in 10 mL. Twenty minutes later, 7 mL were removed. The vials were left at room temperature for the duration of the test."}, "[3]": {"system": "bacterial, fungal and mold growth", "test": "Microbiological test according to USP XXI (Example 15) - overall", "format": "cell-based", "method": "(§2) A microbiological test was conducted according to USP XXI.\nRadiopharmaceutical kits employing MDP (methylene diphosphonic acid), IDP(iminodiphosphonic acid) or DTPA(diethylene-triamine-pentacetic acid) and benzylalkonium chloride (BAC), and optionally polymyxin sulfate B (PSB) were prepared, reconstituted and inoculated utilizing standard procedures."}, "[4]": {"system": "concentrated dust culture", "test": "Bacteriostatic effect of BAC in MDP/PABA - viability check", "format": "cell-based, wild strains of bacteria and fungi", "method": "(§3) A test of the bacteriostatic effects of various concentrations of benzalkonium chloride in MDP/PABA was conducted. A total of fourteen vials, two each of the six concentrations of benzalkonium chloride in MDP/PABA and two control MDP/PABA vials were utilized. A dilute source of microorganisms was prepared by adding 3 drops of a \"dust culture\" (which was a mixed culture derived from dust and comprised a variety of wild strains of bacteria and fungi typical to ambient conditions) to 1 liter of sterile water for injection. After sufficient agitation, three drops of the dilute culture were added to one vial of each concentration, including one zero vial, and all fourteen vials were left to incubate overnight (approx. 18 hours) at room temperature. One tube (15 mi) of Fluid Thioglycollate medium and one tube (15 mi) of Tryptic Soy medium was inoculated with 1 milliliter from each of the fourteen incubated vials. Each tube was incubated for fourteen days."}, "[5]": {"test": "Accelerated stability study of MDP/PABA/BAC", "format": "physicochemical", "method": "The formulations were examined in an accelerated stability study which was conducted according to FDA guidelines."}, "[6]": {"test": "MDP/PABA compared with MDP/PABA/BAC - biodistribution", "format": "in vivo", "conditions": "rat", "method": "A lyophilized batch of MDP/PABA formulated with benzalkonium chloride (MDP/PABA/BAC) was prepared and tested. The bacterial preservative was added prior to freeze-drying. No special precaution was taken in order to avoid excessive air oxidation of the tin.\nA side by side study of biodistribution of the two formulations with and without benzalkonium chloride was conducted.\nEach lyophilized vial contained 10 mg of MDP, 1 mg of stannous chloride dehydrate, 2 mg of PABA and 50 μg of benzalkonium chloride (BAC). The pH was adjusted to 7.0. […] The haze was filtered off to give a clear solution.\nThe dosage was 83 μg MDP per rat (130-150 g). Tissue distribution was monitored at 20 minutes, 1 hour, 2 hours, 6 hours and 24 hours post-reconstitution (PR)."}, "dust culture": {"system": "dust culture", "test": "Bacteriostatic effect of BAC in MDP/PABA - sterility test", "format": "cell-based, wild strains of bacteria and fungi", "method": "as §3"}, "[7]": {"test": "IDP/PABA/BAC and IDP/PABA/BAC/PSB stress test (radiochromatography)", "format": "physicochemical", "conditions": "500 mCi pertechnetate 99mTc", "method": "as §1\nTwo vials of IDP/PABA/BAC were reconstituted with 500 mCi of pertechnetate ^99m Tc in 10 mL of normal saline and 7 ml of the solution was removed 20 minutes later, The solutions were kept at room temperature for the length of the test. The radiochromatography tests as described in Example 1 were performed at less than 30 minutes and at 7 and 24 hours post reconstitution (PR):\nTwo vials of IDP/PABA/BAC/PSB were reconstituted with 500 mCi of pertechnetate ^99m Tc in 10 mL of normal saline and 7 ml of the solution was removed 20 minutes later. The solutions were kept at room temperature for the length of the test. The radiochromatography tests as described in Example 1 were performed at less than 30 min and at 7 and 24 hours post reconstitution (PR): […]"}, "[8]": {"test": "MDP/PABA/BAC radiochemical stress test (Example 3)", "format": "physicochemical", "conditions": "before filtration; pH 7.0; 50 μg BAC", "quoted_text": "A radiochemical \"stress test\" was also performed on three vials of MDP/PABA/BAC. A \"non-stressed\" vial was tested simultaneously as a control.\nFour vials of the lyophilized product were labelled with ^99m Tc-sodium pertechnetate. Each received 500 mCi in 10 mL of technetium from a recent elution. For the first three vials, twenty minutes after reconstitution, 7 mL were removed. The fourth vial remained untouched. The vials were kept at room temperature throughout the length of the experiment.\nThe radiochemical tests were performed at 0.5, 6.0 and 24 hours post reconstitution."}, "[9]": {"test": "MDP/PABA formulated with benzalkonium chloride - stress test (radiochromatography)", "format": "physicochemical", "conditions": "10 mg BAC added with 500 mCi pertechnetate 99mTc", "quoted_text": "Four vials of MDP/PABA were reconstituted with 500 mCi of pertechnetate ^99m Tc in 9 mL of normal saline. Immediately to two vials were added 1 mg/1 mL (0.01%) of benzalkonium chloride solution. Similarly, to the remaining two vials we added 10 mg/1 mL (0.1%)."}, "[10]": {"system": "bacterial, fungal and mold growth", "test": "Microbiological test according to USP XXI - overall", "format": "cell-based", "conditions": "10 or 25 μg BAC in a volume of 10 ml", "method": "as §2"}, "[11]": {"conditions": "MDP/PABA kit vials with 1, 5 and 10 mg BAC (0.01, 0.05, 0.10%), 5 and 24 hours post reconstitution"}}}
{"molecule": "CC(C)(C)CC(C)(C)c1ccc(OCCOCC[N+](C)(C)Cc2ccccc2)cc1", "note": "[benzethonium chloride]", "values": [{"measurement": "effect on PABA / its anti-oxidant properties", "setting": "[1]", "result": "did not interfere with the anti-oxidant properties of PABA"}, {"measurement": "physical appearance (precipitate)", "setting": "[1]", "result": "caused the phosphonate to precipitate giving a cloudy solution"}]}
{"molecule": "N-alkylbenzyldimethylammonium chloride and/or N-dialkylbenzylmethylammonium chloride [benzalkonium chloride]", "values": [{"measurement": "effect on PABA / its anti-oxidant properties", "setting": "[1]", "result": "did not have a deteriorating effect on PABA"}, {"measurement": "physical appearance (precipitate)", "setting": "[1]", "result": "no precipitate was observed"}, {"measurement": "free pertechnetate", "setting": "[1]; [11]", "result": "less than 1%"}, {"measurement": "reduced hydrolyzed technetium", "setting": "[1]; [11]", "result": "less than 1%"}, {"measurement": "effect on PABA / its anti-oxidant properties", "setting": "[1]; listed as BAC", "result": "does not interfere with the anti-oxidant properties of PABA"}, {"measurement": "effect on reducing capacity of stannous chloride", "setting": "[2]", "result": "neither improved nor diminished the reducing capacity of stannous chloride"}, {"measurement": "bacteriostasis", "setting": "[3]; 25 μg BAC and optionally 25 μg polymyxin B in 10 ml", "result": "effective bacteriostasis"}, {"measurement": "Viability check: date growth observed", "setting": "[4]; 50 μg BAC, control, SOY", "result": "2/2"}, {"measurement": "Viability check: date growth observed", "setting": "[4]; 50 μg BAC, control, THIO.", "result": "2/1"}, {"measurement": "Viability check: date growth observed", "setting": "[4]; 50 μg BAC, innoc., SOY", "result": "2/2"}, {"measurement": "Viability check: date growth observed", "setting": "[4]; 50 μg BAC, innoc., THIO.", "result": "2/1"}, {"measurement": "Viability check: date growth observed", "setting": "[4]; 100 μg BAC, control, SOY", "result": "2/2"}, {"measurement": "Viability check: date growth observed", "setting": "[4]; 100 μg BAC, control, THIO.", "result": "2/1"}, {"measurement": "Viability check: date growth observed", "setting": "[4]; 100 μg BAC, innoc., SOY", "result": "2/6"}, {"measurement": "Viability check: date growth observed", "setting": "[4]; 100 μg BAC, innoc., THIO.", "result": "2/1"}, {"measurement": "effect in viability test", "setting": "[4]; 250 μg BAC per vial and over", "result": "beneficial effect of the benzalkonium chloride was evident"}, {"measurement": "Viability check: date growth observed", "setting": "[4]; 250 μg BAC, control, SOY", "result": "NEG."}, {"measurement": "Viability check: date growth observed", "setting": "[4]; 250 μg BAC, control, THIO.", "result": "NEG."}, {"measurement": "Viability check: date growth observed", "setting": "[4]; 250 μg BAC, innoc., SOY", "result": "NEG."}, {"measurement": "Viability check: date growth observed", "setting": "[4]; 250 μg BAC, innoc., THIO.", "result": "NEG."}, {"measurement": "Viability check: date growth observed", "setting": "[4]; 1000 μg BAC, control, SOY", "result": "NEG."}, {"measurement": "Viability check: date growth observed", "setting": "[4]; 1000 μg BAC, control, THIO.", "result": "NEG."}, {"measurement": "Viability check: date growth observed", "setting": "[4]; 1000 μg BAC, innoc., SOY", "result": "NEG."}, {"measurement": "Viability check: date growth observed", "setting": "[4]; 1000 μg BAC, innoc., THIO.", "result": "NEG."}, {"measurement": "effect on shelf life of unreconstituted products", "setting": "[5]", "result": "does not diminish the shelf life of unreconstituted products"}, {"measurement": "biodistribution of the radiopharmaceutical upon addition of BAC", "setting": "[6]", "result": "not altered"}, {"measurement": "Sterility test (growth)", "setting": "dust culture; 10 μg BAC per vial, control (not inoculated), SOY", "result": "NEG."}, {"measurement": "Sterility test (growth)", "setting": "dust culture; 10 μg BAC per vial, control (not inoculated), THIO.", "result": "NEG."}, {"measurement": "Sterility test (growth)", "setting": "dust culture; 10 μg BAC per vial, inoculated, SOY", "result": "POS."}, {"measurement": "Sterility test (growth)", "setting": "dust culture; 10 μg BAC per vial, inoculated, THIO.", "result": "POS."}, {"measurement": "growth in both media", "setting": "dust culture; 10 μg and 25 μg BAC per vial", "result": "Growth was observed in both media"}, {"measurement": "Sterility test (growth)", "setting": "dust culture; 25 μg BAC per vial, control (not inoculated), SOY", "result": "NEG."}, {"measurement": "Sterility test (growth)", "setting": "dust culture; 25 μg BAC per vial, control (not inoculated), THIO.", "result": "NEG."}, {"measurement": "Sterility test (growth)", "setting": "dust culture; 25 μg BAC per vial, inoculated, SOY", "result": "POS."}, {"measurement": "Sterility test (growth)", "setting": "dust culture; 25 μg BAC per vial, inoculated, THIO.", "result": "POS."}, {"measurement": "Sterility test (growth)", "setting": "dust culture; 50 μg BAC per vial, control (not inoculated), SOY", "result": "NEG."}, {"measurement": "Sterility test (growth)", "setting": "dust culture; 50 μg BAC per vial, control (not inoculated), THIO.", "result": "NEG."}, {"measurement": "Sterility test (growth)", "setting": "dust culture; 50 μg BAC per vial, inoculated, SOY", "result": "NEG."}, {"measurement": "Sterility test (growth)", "setting": "dust culture; 50 μg BAC per vial, inoculated, THIO.", "result": "NEG."}, {"measurement": "Sterility test (growth)", "setting": "dust culture; 100 μg BAC per vial, control (not inoculated), SOY", "result": "NEG."}, {"measurement": "Sterility test (growth)", "setting": "dust culture; 100 μg BAC per vial, control (not inoculated), THIO.", "result": "NEG."}, {"measurement": "Sterility test (growth)", "setting": "dust culture; 100 μg BAC per vial, inoculated, SOY", "result": "NEG."}, {"measurement": "Sterility test (growth)", "setting": "dust culture; 100 μg BAC per vial, inoculated, THIO.", "result": "NEG."}, {"measurement": "Sterility test (growth)", "setting": "dust culture; 250 μg BAC per vial, control (not inoculated), SOY", "result": "NEG."}, {"measurement": "Sterility test (growth)", "setting": "dust culture; 250 μg BAC per vial, control (not inoculated), THIO.", "result": "NEG."}, {"measurement": "Sterility test (growth)", "setting": "dust culture; 250 μg BAC per vial, inoculated, SOY", "result": "NEG."}, {"measurement": "Sterility test (growth)", "setting": "dust culture; 250 μg BAC per vial, inoculated, THIO.", "result": "NEG."}, {"measurement": "Sterility test (growth)", "setting": "dust culture; 1000 μg BAC per vial, control (not inoculated), SOY", "result": "NEG."}, {"measurement": "Sterility test (growth)", "setting": "dust culture; 1000 μg BAC per vial, control (not inoculated), THIO.", "result": "NEG."}, {"measurement": "Sterility test (growth)", "setting": "dust culture; 1000 μg BAC per vial, inoculated, SOY", "result": "NEG."}, {"measurement": "Sterility test (growth)", "setting": "dust culture; 1000 μg BAC per vial, inoculated, THIO.", "result": "NEG."}, {"measurement": "growth", "setting": "dust culture; greater than 25 μg BAC per vial", "result": "no growth"}, {"measurement": "effect on stability of the product", "setting": "[7]", "result": "did not affect the stability of the product"}, {"measurement": "haze on addition to the final solution", "setting": "[8]", "result": "a slight haze appeared"}, {"measurement": "effect on stability of the product", "setting": "[9]", "result": "did not affect the stability of the product"}, {"measurement": "bacteriostasis", "setting": "[10]", "result": "effective bacteriostasis"}]}
{"molecule": "polymyxin B", "values": [{"measurement": "protection against Gram Negative bacteria", "setting": "[3]; addition to BAC", "result": "additional protection against Gram Negative bacteria"}]}
